Entries after “also recorded” stand apart in the source; their conditions may differ.

Holding throughout (format): cell-based, mouse
The test system of test [1] is Bcl-2 expressing beclin1^+/+ and beclin1^+/− iBMK cells. Kind of test: Survival during metabolic stress and recovery without and with ROS scavenger (time-lapse images, adherent cells). The following applies: NAC 1 mM, 5 days of metabolic stress. From the text: (§1) FIG. 5 illustrates effects of metabolic stress in promoting elevated ROS production and chromosomal instability in autophagy-deficient cells. (A) Autophagy-deficiency leads to elevated ROS production. Overlays show ROS levels in Bcl-2 expressing beclin1^+/+ (Green) and beclin1^+/− iBMK cells (Blue) (x-axis, log scale) under normal growth (0 Di) and at 0.5, 1, 2.5 and 24 hr (beclin1^+/+, green arrows and beclin1^+/−, red arrows) during recovery (0.5-24 hR) from 5 days of metabolic stress (5 Di) by flow-cytometry using the ROS sensor DCF-DA. The ROS levels in untreated cells are shown in dotted lines for comparison. (B) Representative histogram from three independent experiments measuring the mean ROS levels in Bcl-2 expressing beclin1^+/+ and beclin1^+/− iBMK cells shown in (A). […] Representative time-lapse images of Bcl-2 expressing beclin1^+/+ and beclin1^+/− iBMK cells during recovery following 5 days of metabolic stress in presence (NAC) and absence (UT) of the ROS scavenger NAC (1 mM) (relative percentage of adherent cells compared to time 0 is shown). […] Western blot analysis of p62 levels in Bcl-2 expressing beclin1^+/+, beclin1^+/−, atg5^+/+ and atg5^−/− iBMK cell lines following 0 or 7 days of metabolic stress followed by 1 day recovery without and with NAC. […] Numbers represent passage numbers at which ploidy was determined. […]

The subject of test [2] is diploid beclin1^+/+ and beclin1^+/− iBMK cells. Kind of test: Flow-cytometry analysis of DNA content (progression to aneuploidy) over passages without and with NAC. The conditions noted are these: NAC 1 mM. The text has this:
FIG. 5 illustrates effects of metabolic stress in promoting elevated ROS production and chromosomal instability in autophagy-deficient cells. (A) Autophagy-deficiency leads to elevated ROS production. Overlays show ROS levels in Bcl-2 expressing beclin1^+/+ (Green) and beclin1^+/− iBMK cells (Blue) (x-axis, log scale) under normal growth (0 Di) and at 0.5, 1, 2.5 and 24 hr (beclin1^+/+, green arrows and beclin1^+/−, red arrows) during recovery (0.5-24 hR) from 5 days of metabolic stress (5 Di) by flow-cytometry using the ROS sensor DCF-DA. The ROS levels in untreated cells are shown in dotted lines for comparison. […] Numbers represent passage numbers at which ploidy was determined.
To determine if the elevated ROS and oxidative stress in autophagy-deficient cells contributes to cellular damage, the stress response without and with the ROS scavenger, N-acetyl cysteine (NAC) was examined. […] To examine the role of increased ROS levels and oxidative stress on genomic instability, the DNA content of early passage diploid beclin1^+/+, and autophagy-deficient beclin1^+/− iBMK cells without and with NAC by flow-cytometry were monitored. beclin1^+/+ iBMK cells maintained diploidy after 40 passages and the presence of NAC had no effect. […]

The subject of test [3] is p62. Briefly: Western blot analysis of p62 levels after metabolic stress without and with NAC.
Description: as §1
For orientation: A western blot detects proteins with antibodies after separation by electrophoresis.

For test [4], the system named is Bcl-2 expressing beclin1^+/+ and beclin1^+/− iBMK cells. Briefly: MTT assays of sensitivity to ER stress and proteasome inhibition. The following applies: MTT assay; increasing concentrations; tunicamycin 3 days, epoxomycin 2 days; normal growth conditions. From the text:
FIG. 3 illustrates the effects of autophagy defects in altering the stress response and sensitize cells to ER stress and proteasome inhibition. (A) Western blots showing levels of p62, ER chaperones, PDI and ubiquitin in Bcl-2 expressing beclin1^+/+, beclin1^+/−, atg5^+/+ and atg5^−/− iBMK cells following 5 or 7 days of metabolic stress, and 1 and 2 days of recovery. (B-D) Allelic loss of beclin1 sensitizes cells selectively to ER stress and proteasome inhibition. MTT assays showing sensitivity of Bcl-2 expressing beclin1^+/+ (Blue) and beclin1^+/− (Red) iBMK cells in response to increasing concentrations of (B) tunicamycin for 3 days, or (C) epoxomycin for 2 days, and (D) following 5 days of metabolic stress. Data are presented as mean±SD. (E) Autophagy deficiency causes mitochondrial damage. […]
Since autophagy defects indicated an elevated demand for protein folding, the sensitivity of beclin1 cells to pharmacological induction of ER stress was investigated. […] Degradation of unfolded proteins via the proteasome pathway and ameliorates ER stress and to investigate if autophagy deficiency also elevated the burden on the ubiquitin-proteasome system, the sensitivity to the proteasome inhibitor epoxomycin was assessed. […]

For `CC(=O)N[C@@H](CS)C(=O)O` [NAC, N-acetyl cysteine], the “protective effect in beclin1^+/− cells relative to wild-type” value in test [1] was “more profound”. Besides, the “survival during metabolic stress” value in test [1] (beclin1^+/+ and beclin1^+/− cells) is “partially rescues the susceptibility to metabolic stress and recovery; also recorded: improved survival”. Also, the “effect on maintenance of diploidy” value in test [2] (beclin1^+/+ iBMK cells, 40 passages) is “had no effect”. The progression to aneuploidy entry in test [2] (beclin1^+/− cells, passages 18 and 39) was “limits progression to aneuploidy; also recorded: delayed this progression”. In addition, the “p62 accumulation during metabolic stress” value in test [3] (NAC 1 mM, beclin1^+/− iBMK cells) is “decreased p62 accumulation”. For the same compound, the “p62 accumulation in autophagy-deficient cells” value in test [3] (beclin1^+/− and atg5^−/− cells, 7 days of metabolic stress followed by 1 day recovery, with NAC) is recorded as “suppresses p62 accumulation”.

Turning to Tunicamycin, the “sensitivity of beclin1^+/− cells compared to wild-type cells” value in test [4] is “increased sensitivity”.

(Values after US8187802B2, “Cell lines useful for assessing modulation of autophagy” (Rutgers, The State University of New Jersey, priority 2008, dated 2012).)
